# From US10398751B2, “Pharmaceutical compositions of water soluble peptides with poor solubility in isotonic conditions and methods for their use” (STRONGBRIDGE IRELAND LIMITED, priority 2016, dated 2019)
# Counter-ions that a name gives are not always drawn. Like-named read-outs stand apart in the source and are kept apart here.
# Test: Solubility screening of veldoreotide acetate (10 mg, incremental volumes of medium, USP definition)
# Format: physicochemical
# From the text: The solubility of veldoreotide acetate in aqueous media was screened by the following method. A fixed amount of 10 milligrams of the peptide was weighed and dissolved at ambient temperature by increased (incremental) volumes of the tested medium until a complete solubility was observed, i.e, clear/transparent solution and absence of any precipitates (the solubility endpoint values were defined according to USP guidance). Following the results of the screening studies, several media were selected for verification studies based on quantitative assessment of the peptide concentration by HPLC (maximal solubility). The results of the screening study are depicted in Table 1 while the results of the verification studies are included in Table 2.
smiles,measurement,setting,value
"C[C@@H](O)[C@@H]1NC(=O)[C@H](CCCCN)NC(=O)[C@@H](Cc2c[nH]c3ccccc23)NC(=O)[C@H](Cc2c[nH]c3ccccc23)NC(=O)[C@H](Cc2ccccc2)NC(=O)CCCNC(=O)CCCN(CC(N)=O)C(=O)[C@H](Cc2ccccc2)NC1=O [Veldoreotide Acetate, Cyclo(-γ-aminobutyryl-L-phenylalanyl-L-tryptophanyl-D-tryptophanyl-L-lysyl-L-threonyl-L-phenylalanyl-N-carbamoylmethyl-γ-aminobutyryl), acetate salt]",solubility,"Acetone (USP), 0.1 ml Freely soluble (0.1 g/ml), 10 mg in Acetone (USP)",> 100 mg/mL
same,solubility,"Acetone (USP), 10 ml Slightly soluble (0.001 g/ml; 1 mg/ml), 10 mg in Acetone (USP)",> 1 mg/mL
same,solubility,"Dextrose 5% (USP), 10 mg in Dextrose 5% (USP), read-out: 0.01 ml Very soluble (1 g/ml)",< 1000 mg/mL
same,solubility,"Dextrose 5% (USP), 10 mg in Dextrose 5% (USP), read-out: 0.5 ml Soluble (0.02 g/ml; 20 mg/ml)",> 20 mg/mL
same,solubility,"Dextrose 5% (USP), 10 mg in Dextrose 5% (USP), read-out: 1 ml Sparingly soluble (0.01 g/ml; 10 mg/ml)",> 10 mg/mL
same,solubility,"Dextrose 5% (USP), 0.1 ml Freely soluble (0.1 g/ml), 10 mg in Dextrose 5% (USP)",> 100 mg/mL
same,solubility,"Dextrose 5% (USP), 10 ml Slightly soluble (0.001 g/ml; 1 mg/ml), 10 mg in Dextrose 5% (USP)",> 1 mg/mL
same,solubility,"Ethanol (USP), 10 mg in Ethanol (USP), read-out: 0.01 ml Very soluble (1 g/ml)",< 1000 mg/mL
same,solubility,"Ethanol (USP), 10 mg in Ethanol (USP), read-out: 0.5 ml Soluble (0.02 g/ml; 20 mg/ml)",> 20 mg/mL
same,solubility,"Ethanol (USP), 10 mg in Ethanol (USP), read-out: 1 ml Sparingly soluble (0.01 g/ml; 10 mg/ml)",> 10 mg/mL
same,solubility,"Ethanol (USP), 0.1 ml Freely soluble (0.1 g/ml), 10 mg in Ethanol (USP)",> 100 mg/mL
same,solubility,"Ethanol (USP), 10 ml Slightly soluble (0.001 g/ml; 1 mg/ml), 10 mg in Ethanol (USP)",> 1 mg/mL
same,solubility,"Lactic acid 37 mM, Mannitol 250 mM, pH 4.3, 10 mg in Lactic acid 37 mM, Mannitol 250 mM (pH 4.3), read-out: 0.01 ml Very soluble (1 g/ml)",< 1000 mg/mL
same,solubility,"Lactic acid 37 mM, Mannitol 250 mM, pH 4.3, 10 mg in Lactic acid 37 mM, Mannitol 250 mM (pH 4.3), read-out: 0.5 ml Soluble (0.02 g/ml; 20 mg/ml)",> 20 mg/mL
same,solubility,"Lactic acid 37 mM, Mannitol 250 mM, pH 4.3, 10 mg in Lactic acid 37 mM, Mannitol 250 mM (pH 4.3), read-out: 1 ml Sparingly soluble (0.01 g/ml; 10 mg/ml)",> 10 mg/mL
same,solubility,"Lactic acid 37 mM, Mannitol 250 mM, pH 4.3, 0.1 ml Freely soluble (0.1 g/ml), 10 mg in Lactic acid 37 mM, Mannitol 250 mM (pH 4.3)",> 100 mg/mL
same,solubility,"Lactic acid 37 mM, Mannitol 250 mM, pH 4.3, 10 ml Slightly soluble (0.001 g/ml; 1 mg/ml), 10 mg in Lactic acid 37 mM, Mannitol 250 mM (pH 4.3)",> 1 mg/mL
same,solubility,"PBS, pH 7.2, 10 mg in PBS pH 7.2, read-out: 0.01 ml Very soluble (1 g/ml)",< 1000 mg/mL
same,solubility,"PBS, pH 7.2, 10 mg in PBS pH 7.2, read-out: 0.5 ml Soluble (0.02 g/ml; 20 mg/ml)",< 20 mg/mL
same,solubility,"PBS, pH 7.2, 10 mg in PBS pH 7.2, read-out: 1 ml Sparingly soluble (0.01 g/ml; 10 mg/ml)",< 10 mg/mL
same,solubility,"PBS, pH 7.2, 0.1 ml Freely soluble (0.1 g/ml), 10 mg in PBS pH 7.2",< 100 mg/mL
same,solubility,"PBS, pH 7.2, 10 ml Slightly soluble (0.001 g/ml; 1 mg/ml), 10 mg in PBS pH 7.2",< 1 mg/mL
same,solubility,"Propylene glycol, 10 mg in Propylene glycol, read-out: 0.01 ml Very soluble (1 g/ml)",< 1000 mg/mL
same,solubility,"Propylene glycol, 10 mg in Propylene glycol, read-out: 0.5 ml Soluble (0.02 g/ml; 20 mg/ml)",> 20 mg/mL
same,solubility,"Propylene glycol, 10 mg in Propylene glycol, read-out: 1 ml Sparingly soluble (0.01 g/ml; 10 mg/ml)",> 10 mg/mL
same,solubility,"Propylene glycol, 0.1 ml Freely soluble (0.1 g/ml), 10 mg in Propylene glycol",> 100 mg/mL
same,solubility,"Propylene glycol, 10 ml Slightly soluble (0.001 g/ml; 1 mg/ml), 10 mg in Propylene glycol",> 1 mg/mL
same,solubility,"Saline (USP) (0.9% NaCl), pH 4.5, 10 mg in Saline (USP) (0.9% NaCl) pH 4.5, read-out: 0.01 ml Very soluble (1 g/ml)",< 1000 mg/mL
same,solubility,"Saline (USP) (0.9% NaCl), pH 4.5, 10 mg in Saline (USP) (0.9% NaCl) pH 4.5, read-out: 0.5 ml Soluble (0.02 g/ml; 20 mg/ml)",< 20 mg/mL
same,solubility,"Saline (USP) (0.9% NaCl), pH 4.5, 10 mg in Saline (USP) (0.9% NaCl) pH 4.5, read-out: 1 ml Sparingly soluble (0.01 g/ml; 10 mg/ml)",< 10 mg/mL
same,solubility,"Saline (USP) (0.9% NaCl), pH 4.5, 0.1 ml Freely soluble (0.1 g/ml), 10 mg in Saline (USP) (0.9% NaCl) pH 4.5",< 100 mg/mL
same,solubility,"Saline (USP) (0.9% NaCl), pH 4.5, 10 ml Slightly soluble (0.001 g/ml; 1 mg/ml), 10 mg in Saline (USP) (0.9% NaCl) pH 4.5",< 1 mg/mL
same,solubility,"caprylic acid, 10 mg in Caprylic acid, read-out: 0.01 ml Very soluble (1 g/ml)",< 1000 mg/mL
same,solubility,"caprylic acid, 10 mg in Caprylic acid, read-out: 0.5 ml Soluble (0.02 g/ml; 20 mg/ml)",> 20 mg/mL
same,solubility,"caprylic acid, 10 mg in Caprylic acid, read-out: 1 ml Sparingly soluble (0.01 g/ml; 10 mg/ml)",> 10 mg/mL
same,solubility,"caprylic acid, 0.1 ml Freely soluble (0.1 g/ml), 10 mg in Caprylic acid",< 100 mg/mL
same,solubility,"caprylic acid, 10 ml Slightly soluble (0.001 g/ml; 1 mg/ml), 10 mg in Caprylic acid",> 1 mg/mL
same,solubility,"double distilled water, 10 mg in DDW (Double distilled water), read-out: 0.01 ml Very soluble (1 g/ml)",< 1000 mg/mL
same,solubility,"double distilled water, 10 mg in DDW (Double distilled water), read-out: 0.5 ml Soluble (0.02 g/ml; 20 mg/ml)",> 20 mg/mL
same,solubility,"double distilled water, 10 mg in DDW (Double distilled water), read-out: 1 ml Sparingly soluble (0.01 g/ml; 10 mg/ml)",> 10 mg/mL
same,solubility,"double distilled water, 0.1 ml Freely soluble (0.1 g/ml), 10 mg in DDW (Double distilled water)",> 100 mg/mL
same,solubility,"double distilled water, 10 ml Slightly soluble (0.001 g/ml; 1 mg/ml), 10 mg in DDW (Double distilled water)",> 1 mg/mL
same,solubility,"glycerol, 10 mg in Glycerol, read-out: 0.01 ml Very soluble (1 g/ml)",< 1000 mg/mL
same,solubility,"glycerol, 10 mg in Glycerol, read-out: 0.5 ml Soluble (0.02 g/ml; 20 mg/ml)",> 20 mg/mL
same,solubility,"glycerol, 10 mg in Glycerol, read-out: 1 ml Sparingly soluble (0.01 g/ml; 10 mg/ml)",> 10 mg/mL
same,solubility,"glycerol, 0.1 ml Freely soluble (0.1 g/ml), 10 mg in Glycerol",< 100 mg/mL
same,solubility,"glycerol, 10 ml Slightly soluble (0.001 g/ml; 1 mg/ml), 10 mg in Glycerol",> 1 mg/mL
same,solubility,"oleic acid, 10 mg in Oleic acid, read-out: 0.01 ml Very soluble (1 g/ml)",< 1000 mg/mL
same,solubility,"oleic acid, 10 mg in Oleic acid, read-out: 0.5 ml Soluble (0.02 g/ml; 20 mg/ml)",< 20 mg/mL
same,solubility,"oleic acid, 10 mg in Oleic acid, read-out: 1 ml Sparingly soluble (0.01 g/ml; 10 mg/ml)",< 10 mg/mL
same,solubility,"oleic acid, 0.1 ml Freely soluble (0.1 g/ml), 10 mg in Oleic acid",< 100 mg/mL
same,solubility,"oleic acid, 10 ml Slightly soluble (0.001 g/ml; 1 mg/ml), 10 mg in Oleic acid",< 1 mg/mL
same,solubility,"refined vegetable oils (olive, cotton, coconut, canola), 10 mg in Refined vegetable oils, Olive, Cotton, Coconut, Canola, read-out: 0.01 ml Very soluble (1 g/ml)",< 1000 mg/mL
same,solubility,"refined vegetable oils (olive, cotton, coconut, canola), 10 mg in Refined vegetable oils, Olive, Cotton, Coconut, Canola, read-out: 0.5 ml Soluble (0.02 g/ml; 20 mg/ml)",< 20 mg/mL
same,solubility,"refined vegetable oils (olive, cotton, coconut, canola), 10 mg in Refined vegetable oils, Olive, Cotton, Coconut, Canola, read-out: 1 ml Sparingly soluble (0.01 g/ml; 10 mg/ml)",< 10 mg/mL
same,solubility,"refined vegetable oils (olive, cotton, coconut, canola), 0.1 ml Freely soluble (0.1 g/ml), 10 mg in Refined vegetable oils, Olive, Cotton, Coconut, Canola",< 100 mg/mL
same,solubility,"refined vegetable oils (olive, cotton, coconut, canola), 10 ml Slightly soluble (0.001 g/ml; 1 mg/ml), 10 mg in Refined vegetable oils, Olive, Cotton, Coconut, Canola",< 1 mg/mL
same,solubility,"water for injection (WFI-USP), 10 mg in WFI-USP (water for injection), read-out: 0.01 ml Very soluble (1 g/ml)",< 1000 mg/mL
same,solubility,"water for injection (WFI-USP), 10 mg in WFI-USP (water for injection), read-out: 0.5 ml Soluble (0.02 g/ml; 20 mg/ml)",> 20 mg/mL
same,solubility,"water for injection (WFI-USP), 10 mg in WFI-USP (water for injection), read-out: 1 ml Sparingly soluble (0.01 g/ml; 10 mg/ml)",> 10 mg/mL
same,solubility,"water for injection (WFI-USP), 0.1 ml Freely soluble (0.1 g/ml), 10 mg in WFI-USP (water for injection)",< 100 mg/mL
same,solubility,"water for injection (WFI-USP), 10 ml Slightly soluble (0.001 g/ml; 1 mg/ml), 10 mg in WFI-USP (water for injection)",> 1 mg/mL
